According to US9274116B2, “Drug selection for breast cancer therapy using antibody-based arrays” (NESTEC S.A., priority 2008, dated 2016):
Values belong to the compound of their own block, whether it stands above or below them.

What was measured:
ErbB3 = assay: Tumor cell pathway profile: ErbB3; format: in vivo, human; conditions: tumor cells on re-biopsy
Procedure: (§1) The incubation was for 2 hours at room temperature. • 5) Alternatively, the detection step utilized a biotin-conjugate of the monoclonal antibody recognizing phosphorylated EGFR. In these instances, after six washes an additional sequential step of incubation with streptavidin-HRP for 1 hour was included. • 6) Alternatively, the detection step utilized an oligonucleotide-mediated glucose oxidase (GO) conjugate of the anti-EGFR antibody.
(§2) The exemplary patient profiles shown below in Tables 4-22 illustrate how an analysis of the pathways active in circulating tumor cells (CTCs) from blood or cancer cells obtained from a needle biopsy can be used to help physicians decide upon an effective course of treatment for a breast tumor, e.g., neoadjuvant treatment prior to surgery to reduce the size of the breast tumor or treatment in patients with locally recurrent or metastatic breast cancer. In brief, the activation levels of different components of the ErbB and nuclear hormone receptor pathways in CTCs or biopsy-derived cancer cells can be determined in the presence or absence of different combinations of test therapeutic agents.

ER:N-CoR Complex = biological target: T1, ER:N-CoR Complex (Homo sapiens, UniProt P03372); assay: Tumor cell pathway profile: ER:N-CoR complex; format: in vivo; conditions: Patient 4008 (High AIB1; ER+/PR+/ErbB2−), tumor cells on re-biopsy
T1 construct: pathways active in circulating tumor cells (CTCs) from blood or cancer cells obtained from a needle biopsy; endogenous in cells; host or cells: patient's circulating tumour cells or biopsy-derived breast cancer cells
Procedure: as §1
(§3) In brief, the activation levels of different components of the ErbB and nuclear hormone receptor pathways in CTCs or biopsy-derived cancer cells can be determined in the presence or absence of different combinations of test therapeutic agents.

Rsk = assay: Tumor cell pathway profile: Rsk; format: in vivo, human; conditions: tumor cells on re-biopsy
Procedure: as §1, §3

ER:AIB1 Complex = biological target: T2, ER:AIB1 Complex (Homo sapiens, UniProt P03372); assay: Tumor cell pathway profile: ER:AIB1 complex; format: in vivo; conditions: Patient 4008 (High AIB1; ER+/PR+/ErbB2−), tumor cells on re-biopsy
T2 construct: pathways active in circulating tumor cells (CTCs) from blood or cancer cells obtained from a needle biopsy; endogenous in cells; host or cells: patient's circulating tumour cells or biopsy-derived breast cancer cells
Procedure: as §1, §3

Akt = assay: Tumor cell pathway profile: Akt; format: in vivo, human; conditions: tumor cells on re-biopsy
Procedure: as §1, §3

ErbB2 = biological target: T3, ErbB2 (Homo sapiens, UniProt P04626); assay: Tumor cell pathway profile: ErbB2; format: in vivo; conditions: tumor cells on re-biopsy
T3 construct: pathways active in circulating tumor cells (CTCs) from blood or cancer cells obtained from a needle biopsy; endogenous in cells; host or cells: patient's circulating tumour cells or biopsy-derived breast cancer cells
Procedure: as §1, §3

breast tumor = assay: Response of breast cancer patient to therapy selected from pathway profile; format: in vivo, human
From the text: as §2
In brief, the activation levels of different components of signal transduction pathways such as the ErbB receptor pathways in CTCs or biopsy-derived cancer cells can be determined in the presence or absence of different combinations of test therapeutic agents.

Erk = assay: Tumor cell pathway profile: Erk; format: in vivo, human; conditions: tumor cells on re-biopsy
Procedure: as §1, §3

ErbB4 = biological target: T4, ErbB4 (Homo sapiens, UniProt Q15303); assay: Tumor cell pathway profile: ErbB4; format: in vivo; conditions: tumor cells on re-biopsy
T4 construct: pathways active in circulating tumor cells (CTCs) from blood or cancer cells obtained from a needle biopsy; endogenous in cells; host or cells: patient's circulating tumour cells or biopsy-derived breast cancer cells
Procedure: as §1, §3

Ki67 = assay: Tumor cell pathway profile: Ki67; format: in vivo, human; conditions: tumor cells on re-biopsy
Procedure: as §1, §2

Shc = assay: Tumor cell pathway profile: Shc; format: in vivo, human; conditions: tumor cells on re-biopsy
Procedure: as §1, §2

IGF-1R = assay: Tumor cell pathway profile: IGF-1R; format: in vivo, human; conditions: tumor cells on re-biopsy
Procedure: as §1, §3

PI3K = assay: Tumor cell pathway profile: PI3K; format: in vivo, human; conditions: tumor cells on re-biopsy
Procedure: as §1, §3

P70S6K = assay: Tumor cell pathway profile: P70S6K; format: in vivo, human; conditions: tumor cells on re-biopsy
Procedure: as §1, §3

ER (Ser 167) = biological target: T5, ER (Ser 167) (Homo sapiens, UniProt P03372); assay: Tumor cell pathway profile: ER (Ser 167) phosphorylation; format: in vivo; conditions: Patient 4008 (High AIB1; ER+/PR+/ErbB2−), tumor cells on re-biopsy
T5 construct: pathways active in circulating tumor cells (CTCs) from blood or cancer cells obtained from a needle biopsy; endogenous in cells; host or cells: patient's circulating tumour cells or biopsy-derived breast cancer cells
Procedure: as §1, §3

ER = biological target: T6, ER (Homo sapiens, UniProt P03372); assay: Tumor cell (CTC/biopsy) pathway profile on antibody array: ER expression; format: in vivo; conditions: Patient 4008 (High AIB1; ER+/PR+/ErbB2−), tumor cells on re-biopsy
T6 construct: pathways active in circulating tumor cells (CTCs) from blood or cancer cells obtained from a needle biopsy; endogenous in cells; host or cells: patient's circulating tumour cells or biopsy-derived breast cancer cells
Procedure: as §1, §3

Progesterone Receptor = assay: Tumor cell pathway profile: Progesterone Receptor; format: in vivo, human; conditions: tumor cells on re-biopsy
Procedure: as §1, §2

ErbB1 = biological target: T7, ErbB1 (Homo sapiens, UniProt P00533); assay: Tumor cell pathway profile: ErbB1; format: in vivo; conditions: Patient 4008 (High AIB1; ER+/PR+/ErbB2−), tumor cells on re-biopsy
T7 construct: pathways active in circulating tumor cells (CTCs) from blood or cancer cells obtained from a needle biopsy; endogenous in cells; host or cells: patient's circulating tumour cells or biopsy-derived breast cancer cells
Procedure: as §1, §3

ER (Ser 118) = biological target: T8, ER (Ser 118) (Homo sapiens, UniProt P03372); assay: Tumor cell pathway profile: ER (Ser 118) phosphorylation; format: in vivo; conditions: Patient 4008 (High AIB1; ER+/PR+/ErbB2−), tumor cells on re-biopsy
T8 construct: pathways active in circulating tumor cells (CTCs) from blood or cancer cells obtained from a needle biopsy; endogenous in cells; host or cells: patient's circulating tumour cells or biopsy-derived breast cancer cells
Procedure: as §1, §3

TOPO II = assay: Tumor cell pathway profile: TOPO II; format: in vivo, human; conditions: Patient 4001 (ER+/PR+/ErbB2−), tumor cells on re-biopsy
Procedure: as §1, §2

PTEN = assay: Tumor cell pathway profile: PTEN; format: in vivo, human; conditions: Patient 4001 (ER+/PR+/ErbB2−), tumor cells on re-biopsy
Procedure: as §1, §2

pHER-2 = assay: Multiplexed proximity assay, per-cell RTK activation in cell lines: pHER-2; format: cell-based; conditions: for Per Cell-RTK Activation (RFU/cell) pHER2: stimulation with the ligand, calculated from number of cells required to detect EC20 (12000 RFU)
Procedure: SKBR3, MDA-MB-468, T47D, and BT474 cell lines were obtained from ATCC. Cells were grown in the following growth media in 100 mm tissue culture plates at 37° C. in 5% CO2: SKBR3—MacCoy's 5A medium with 10% FBS; MDA-MB-468—DMEM, 10% FBS; BT474—DMEM, 10% FBS; T47D—RPMI 1640, 10% FBS, 0.2 U/ml bovine insulin. Cells were harvested at 70-80% confluency with gentle detachment process (trypsin treatment+subsequent inactivation) and were subsequently counted and washed with 1×PBS. […] Subsequently, stimulated cells were washed with 1×PBS and then were lysed and kept on ice for 30 min.
Capture antibodies were diluted in 1×PBS with detergent. A contact microarray printer (Genetix) was utilized to print on 16 pad nitrocellulose FAST slides (Whatman). The spot diameter was approximately 175 μm and printed slides were kept in a desiccated chamber at 4° C.
Slides were incubated with blocking buffer for 1 hr and then washed 3× with TBST buffer. Cell lysates were then added onto each pad for overnight incubation at room temperature (RT). Upon the completion of the primary binding, lysates were aspirated and then each pad was washed several times with TBST. Then, secondary detector antibodies (conjugated with GO or HRP) were added to each pad for 2 hr at RT. Unbound secondary detector antibodies were removed by washing with TBST, and signal amplification buffer containing glucose and biotinylated tyramide was added to each pad for 15 min. After removing excess biotinylated tyramide, Alexa-647 conjugated strepavidin was added for the signal detection.
Quantitation was performed using Perkin Elmer ScanArray Express software and the data obtained was corrected for local and global background intensities. A GenePixArray List (GAL) file was used to provide descriptive name and identifier information and was incorporated into the image analysis output file. Signals from triplicate spots were averaged and data were normalized to correct for pad to pad variability. A nonlinear regression model was used for the quantitation of cell-equivalent amount for corresponding relative fluorescence unit (RFU) values. The data were fit to a five parameter Hill equation to generate the standard curves. Each curve was validated against known controls. A known number of cells was predicted for the appropriate dilution, corresponding to the curve with the highest slope at the intensity of the unknown sample.
Analytical specificity of the collaborative immunoassay format described herein was >99.99% based on a comparative study performed on multiple cell lines with various RTK levels. […] The RTK activation profile for T47D cells, which express some level of ErbB2 and ErbB3 but an extremely low amount of ErbB1, is shown in FIG. 22. The number of cells required to detect EC20 (12000 RFU) pHER-1 or pHER-2 were used to calculate per-cell RTK activation (RFU/cell) as shown in Table 43. When MB468 cells expressing an extremely low amount of HER-2 were used, having ˜1000 cells per reaction pad was not sufficient to achieve EC20, and this type of low or non-detectable signal in other cell lines was indicated as “ND” in Table 43. […] This collaborative immunoassay format ensures ultra-specificity while maintaining its sub-single cell level (10^4 to 10^5) molecular level assay sensitivity.

p95ErbB2 = conditions: T47D cells, FIG. 17
Procedure: The slide is incubated for two hours at room temperature. • 4) After six washes with TBS-Tween, 80 μl of detection antibodies for the proximity assay diluted in TBS-Tween/2% BSA/1% FBS is added to the slides. The detection antibodies used are: (1) an anti-ErbB2 antibody specific for the intracellular domain of ErbB2 that is directly conjugated to glucose oxidase (GO); and (2) a monoclonal antibody recognizing phosphorylated ErbB2 that is directly conjugated to horseradish peroxidase (HRP). The incubation is for 2 hours at room temperature. • 5) For signal amplification, 80 μl of biotin-tyramide at 5 μg/ml is added and reacted for 15 minutes along with 50 mM glucose. The slide is washed six times with TBS-Tween, twice with 20% DMSO/TBS-Tween, and once with TBS. […] The slide is then washed twice, dried for 5 minutes, and scanned on a microarray scanner (Perkin-Elmer, Inc.). • 6) As a non-limiting example, slide 1 can report on total ErbB2 activation while slide 2 can report on truncated ErbB2 activation.
The slide is incubated for two hours at room temperature. • 4) After six washes with TBS-Tween, 80 μl of detection antibodies for the assay diluted in TBS-Tween/2% BSA/1% FBS is added to the slides. The detection antibody used is an anti-ErbB2 antibody specific for the intracellular domain of ErbB2 that is directly conjugated to HRP. […]

pHER-1 = biological target: T9, pHER-1 (Homo sapiens, UniProt P00533); assay: Multiplexed proximity assay, per-cell RTK activation in cell lines: pHER-1; format: cell-based; conditions: stimulation with the ligand, calculated from number of cells required to detect EC20 (12000 RFU)
T9 construct: host or cells: SKBR3, MDA-MB-468, T47D, BT474
Procedure: Slides were incubated with blocking buffer for 1 hr and then washed 3× with TBST buffer. Cell lysates were then added onto each pad for overnight incubation at room temperature (RT). Upon the completion of the primary binding, lysates were aspirated and then each pad was washed several times with TBST. Then, secondary detector antibodies (conjugated with GO or HRP) were added to each pad for 2 hr at RT. […]
Quantitation was performed using Perkin Elmer ScanArray Express software and the data obtained was corrected for local and global background intensities. […] A nonlinear regression model was used for the quantitation of cell-equivalent amount for corresponding relative fluorescence unit (RFU) values. […]

[1] = Patient 4008 (High AIB1; ER+/PR+/ErbB2−)

T4 sequence (Q15303 26-1308): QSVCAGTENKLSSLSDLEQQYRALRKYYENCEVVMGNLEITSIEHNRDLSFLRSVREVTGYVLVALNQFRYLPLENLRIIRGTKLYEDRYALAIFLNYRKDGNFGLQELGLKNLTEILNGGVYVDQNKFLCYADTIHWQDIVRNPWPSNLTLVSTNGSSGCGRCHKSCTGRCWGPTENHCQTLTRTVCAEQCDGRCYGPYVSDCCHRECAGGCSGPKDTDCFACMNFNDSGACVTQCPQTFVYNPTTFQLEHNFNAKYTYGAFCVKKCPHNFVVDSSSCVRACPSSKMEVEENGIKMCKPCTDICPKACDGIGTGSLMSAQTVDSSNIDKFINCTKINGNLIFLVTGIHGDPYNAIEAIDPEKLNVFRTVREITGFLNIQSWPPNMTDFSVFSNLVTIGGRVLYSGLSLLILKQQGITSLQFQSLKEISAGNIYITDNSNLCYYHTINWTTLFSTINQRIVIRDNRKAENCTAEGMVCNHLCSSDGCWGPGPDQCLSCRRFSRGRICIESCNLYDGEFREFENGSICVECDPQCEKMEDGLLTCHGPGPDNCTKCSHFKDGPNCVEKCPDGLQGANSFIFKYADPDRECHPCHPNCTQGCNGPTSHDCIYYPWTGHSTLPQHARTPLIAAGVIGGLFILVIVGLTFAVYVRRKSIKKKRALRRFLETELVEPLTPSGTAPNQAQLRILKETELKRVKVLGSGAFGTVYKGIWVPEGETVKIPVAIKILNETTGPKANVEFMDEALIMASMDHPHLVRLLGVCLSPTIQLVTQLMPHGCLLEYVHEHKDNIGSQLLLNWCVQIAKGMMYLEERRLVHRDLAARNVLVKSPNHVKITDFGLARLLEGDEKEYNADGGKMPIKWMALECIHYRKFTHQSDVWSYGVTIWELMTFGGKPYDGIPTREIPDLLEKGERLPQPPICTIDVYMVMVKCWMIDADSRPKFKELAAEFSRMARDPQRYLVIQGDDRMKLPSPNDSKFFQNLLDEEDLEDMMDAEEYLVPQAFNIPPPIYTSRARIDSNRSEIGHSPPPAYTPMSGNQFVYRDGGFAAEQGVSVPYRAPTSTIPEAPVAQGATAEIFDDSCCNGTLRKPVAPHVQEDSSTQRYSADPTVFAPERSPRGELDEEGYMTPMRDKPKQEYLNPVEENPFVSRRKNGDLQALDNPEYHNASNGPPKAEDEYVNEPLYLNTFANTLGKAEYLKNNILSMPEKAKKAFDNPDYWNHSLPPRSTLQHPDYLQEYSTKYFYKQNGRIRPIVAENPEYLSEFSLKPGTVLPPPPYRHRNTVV
T3 sequence (P04626 23-1255): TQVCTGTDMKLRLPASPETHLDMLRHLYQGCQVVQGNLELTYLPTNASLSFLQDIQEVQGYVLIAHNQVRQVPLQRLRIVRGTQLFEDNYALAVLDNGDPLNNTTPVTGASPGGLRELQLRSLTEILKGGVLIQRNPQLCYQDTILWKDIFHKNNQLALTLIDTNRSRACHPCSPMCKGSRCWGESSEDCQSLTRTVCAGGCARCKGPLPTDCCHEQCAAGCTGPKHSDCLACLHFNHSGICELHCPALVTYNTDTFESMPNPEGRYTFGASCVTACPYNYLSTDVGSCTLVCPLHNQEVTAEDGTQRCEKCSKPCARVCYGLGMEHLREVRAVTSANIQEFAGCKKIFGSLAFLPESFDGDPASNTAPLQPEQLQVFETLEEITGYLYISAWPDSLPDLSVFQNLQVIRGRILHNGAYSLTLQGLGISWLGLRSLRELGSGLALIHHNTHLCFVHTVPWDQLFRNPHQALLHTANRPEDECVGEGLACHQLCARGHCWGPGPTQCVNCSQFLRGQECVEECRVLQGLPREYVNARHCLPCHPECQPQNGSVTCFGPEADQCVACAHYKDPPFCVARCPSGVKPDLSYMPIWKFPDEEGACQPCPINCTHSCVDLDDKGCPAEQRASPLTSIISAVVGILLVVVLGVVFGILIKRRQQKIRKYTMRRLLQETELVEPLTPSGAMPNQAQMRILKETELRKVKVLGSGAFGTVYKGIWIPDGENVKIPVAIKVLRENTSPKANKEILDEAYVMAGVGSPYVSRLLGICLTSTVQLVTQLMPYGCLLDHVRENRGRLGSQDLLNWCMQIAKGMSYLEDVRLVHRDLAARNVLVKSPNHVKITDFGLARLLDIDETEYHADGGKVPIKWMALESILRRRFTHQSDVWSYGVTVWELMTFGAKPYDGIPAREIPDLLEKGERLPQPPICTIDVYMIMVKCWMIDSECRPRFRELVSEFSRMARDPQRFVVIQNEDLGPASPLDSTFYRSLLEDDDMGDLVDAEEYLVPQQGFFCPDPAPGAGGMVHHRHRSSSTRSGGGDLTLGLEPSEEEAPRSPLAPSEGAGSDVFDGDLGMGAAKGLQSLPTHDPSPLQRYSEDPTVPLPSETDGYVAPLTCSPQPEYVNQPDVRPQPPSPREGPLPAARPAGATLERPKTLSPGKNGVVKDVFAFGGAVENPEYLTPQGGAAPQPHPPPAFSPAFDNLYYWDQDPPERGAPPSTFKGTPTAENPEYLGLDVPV
T2 sequence (P03372 whole entry, one chain of several): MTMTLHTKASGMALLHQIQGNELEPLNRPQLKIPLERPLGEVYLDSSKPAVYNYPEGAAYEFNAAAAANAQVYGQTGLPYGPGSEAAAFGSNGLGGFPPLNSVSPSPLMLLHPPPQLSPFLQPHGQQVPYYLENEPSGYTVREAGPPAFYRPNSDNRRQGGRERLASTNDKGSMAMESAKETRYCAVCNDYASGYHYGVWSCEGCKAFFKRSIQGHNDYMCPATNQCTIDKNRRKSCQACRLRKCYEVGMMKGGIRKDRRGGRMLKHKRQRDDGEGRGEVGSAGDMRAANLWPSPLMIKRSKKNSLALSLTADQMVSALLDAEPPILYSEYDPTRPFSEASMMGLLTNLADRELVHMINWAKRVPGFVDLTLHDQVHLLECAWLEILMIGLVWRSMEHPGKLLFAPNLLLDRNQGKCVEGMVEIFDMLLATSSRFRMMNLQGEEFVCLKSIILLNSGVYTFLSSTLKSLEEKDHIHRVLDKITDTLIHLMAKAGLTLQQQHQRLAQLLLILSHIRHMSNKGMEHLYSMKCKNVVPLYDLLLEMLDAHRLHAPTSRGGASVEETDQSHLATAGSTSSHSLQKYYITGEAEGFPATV
T8 sequence (P03372 whole entry): as the sequence (P03372 whole entry, one chain of several) above
T5 sequence (P03372 whole entry): as the sequence (P03372 whole entry, one chain of several) above
T6 sequence (P03372 whole entry): as the sequence (P03372 whole entry, one chain of several) above

- ER: N-CoR Complex: Treatment with Fulvestrant (ER:N-CoR Complex): Weak
- ER: AIB1 Complex: Treatment with Fulvestrant (ER:AIB1 Complex): Weak
- ErbB2: Treatment with Fulvestrant (ErbB2; [1]): Weak
- ErbB4: Treatment with Fulvestrant (ErbB4; [1]): Weak
- ER (Ser 167): Treatment with Fulvestrant (ER (Ser 167)): Weak
- ER: Treatment with Fulvestrant (ER): Low
- ErbB1: Treatment with Fulvestrant (ErbB1): Weak
- ER (Ser 118): Treatment with Fulvestrant (ER (Ser 118)): Weak
Compound: C[C@]12CC[C@@H]3c4ccc(O)cc4C[C@@H](CCCCCCCCC[S+]([O-])CCCC(F)(F)C(F)(F)F)[C@H]3[C@@H]1CC[C@@H]2O (some centres unmarked) [Fulvestrant, fulvestrant]
- ErbB3: Treatment with Fulvestrant (ErbB3; [1]): Weak
- Rsk: Treatment with Fulvestrant (Rsk; [1]): Weak
- Akt: Treatment with Fulvestrant (Akt; [1]): Weak
- Patient response to treatment (breast tumor; [1]): responded
- Erk: Treatment with Fulvestrant (Erk; [1]): Weak
- Ki67: Treatment with Fulvestrant (Ki67; [1]): Weak
- Shc: Treatment with Fulvestrant (Shc; [1]): Weak
- IGF-1R: Treatment with Fulvestrant (IGF-1R; [1]): Weak
- PI3K: Treatment with Fulvestrant (PI3K; [1]): Weak
- P70S6K: Treatment with Fulvestrant (P70S6K; [1]): Weak
- Progesterone Receptor: Treatment with Fulvestrant (Progesterone Receptor; [1]): Low

Compound: CC/C(=C(\c1ccccc1)c1ccc(OCCN(C)C)cc1)c1ccccc1 [Tamoxifen, tamoxifen]
- ErbB3: Treatment with Tamoxifen (ErbB3; Patient 4001 (ER+/PR+/ErbB2−)): Weak
- Rsk: Treatment with Tamoxifen (Rsk; Patient 4001 (ER+/PR+/ErbB2−)): Weak
- Akt: Treatment with Tamoxifen (Akt; Patient 4001 (ER+/PR+/ErbB2−)): Weak
- TOPO II: Treatment with Tamoxifen (TOPO II): Medium
- PTEN: Treatment with Tamoxifen (PTEN): Medium
- ErbB2: Treatment with Tamoxifen (ErbB2; Patient 4001 (ER+/PR+/ErbB2−)): Weak
- Patient response to treatment (breast tumor; Patient 4001 (ER+/PR+/ErbB2−), premenopausal, node negative): responded
- Erk: Treatment with Tamoxifen (Erk; Patient 4001 (ER+/PR+/ErbB2−)): Weak
- ErbB4: Treatment with Tamoxifen (ErbB4; Patient 4001 (ER+/PR+/ErbB2−)): Weak
- Ki67: Treatment with Tamoxifen (Ki67; Patient 4001 (ER+/PR+/ErbB2−)): Weak
- Shc: Treatment with Tamoxifen (Shc; Patient 4001 (ER+/PR+/ErbB2−)): Weak
- IGF-1R: Treatment with Tamoxifen (IGF-1R; Patient 4001 (ER+/PR+/ErbB2−)): Weak
- PI3K: Treatment with Tamoxifen (PI3K; Patient 4001 (ER+/PR+/ErbB2−)): Weak
- P70S6K: Treatment with Tamoxifen (P70S6K; Patient 4001 (ER+/PR+/ErbB2−)): Weak
- Progesterone Receptor: Treatment with Tamoxifen (Progesterone Receptor; Patient 4001 (ER+/PR+/ErbB2−)): Medium

Compound: EGF: epidermal growth factor, stimulatory growth factor
- Per Cell-RTK Activation (RFU/cell) pHER2 (pHER-2; BT 474 cells): 1200 RFU/cell
- pHER-2 (pHER-2; MDA MB 468 cells stimulated with EGF): do not show any detectable
- Per Cell-RTK Activation (RFU/cell) pHER2 (pHER-2; SKBR3 cells): 1334 RFU/cell
- Per Cell-RTK Activation (RFU/cell) pHER2 (pHER-2; T47D cells): 80 RFU/cell

- Per Cell-RTK Activation (RFU/cell) pHER1 (pHER-1; MD AMB 468 cells): 4000 RFU/cell
- Per Cell-RTK Activation (RFU/cell) pHER1 (pHER-1; SKBR3 cells): 105 RFU/cell
Compound: heregulin
- p95ErbB2 phosphorylation (p95ErbB2): increased
- Per Cell-RTK Activation (RFU/cell) pHER2 (pHER-2; BT 474 cells): 1200 RFU/cell
- Per Cell-RTK Activation (RFU/cell) pHER2 (pHER-2; SKBR3 cells): 353 RFU/cell
- Per Cell-RTK Activation (RFU/cell) pHER2 (pHER-2; T47D cells): 165 RFU/cell
